# Measurements taken from patent publication US20210053957A1, “HERBICIDAL COMPOUNDS” (SYNGENTA PARTICIPATIONS AG, priority 2018, published 2021).
# Tests used:
# Test in all cases: Post-emergence efficacy, glasshouse spray test
# Assay type in all cases: in vivo
# Setaia fabei (SETFA) = conditions: Application Rate 500 g/Ha, evaluated after 13 days; for pest or weed control at 500 g/ha: Setaria faberi, post-emergence, 312 h, read-out: Control of weed species after post-emergence application, SETFA (100=total damage to plant; 0=no damage to plant)
# How it was run: (§1)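 Visual damage rating (0 = no damage, 100 = total damage) taken 13 days after a post-emergence spray. Plants had grown 14 days in pots under 24/16° C, 14 h light, 65% humidity before treatment.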
# [1] = tested on: Amaranthus palmeri (AMAPA); conditions: Application Rate 500 g/Ha, evaluated after 13 days; for pest or weed control at 500 g/ha: Amaranthus palmeri, post-emergence, 312 h, read-out: Control of weed species after post-emergence application, AMAPA (100=total damage to plant; 0=no damage to plant)
# How it was run: as §1
# Lolium perenne (LOLPE) = conditions: Application Rate 500 g/Ha, evaluated after 13 days; for pest or weed control at 500 g/ha: Lolium perenne, post-emergence, 312 h, read-out: Control of weed species after post-emergence application, LOLPE (100=total damage to plant; 0=no damage to plant)
# How it was run: as §1
# [2] = tested on: Digitaria sanguinalis (DIGSA); conditions: Application Rate 500 g/Ha, evaluated after 13 days; for pest or weed control at 500 g/ha: Digitaria sanguinalis, post-emergence, 312 h, read-out: Control of weed species after post-emergence application, DIGSA (100=total damage to plant; 0=no damage to plant)
# How it was run: as §1
# [3] = tested on: Euphorbia heterophylla (EPHHL); conditions: Application Rate 500 g/Ha, evaluated after 13 days; for pest or weed control at 500 g/ha: Euphorbia heterophylla, post-emergence, 312 h, read-out: Control of weed species after post-emergence application, EPHHL (100=total damage to plant; 0=no damage to plant)
# How it was run: as §1
# [4] = tested on: Ipomoea hederacea (IPOHE); conditions: Application Rate 500 g/Ha, evaluated after 13 days; for pest or weed control at 500 g/ha: Ipomoea hederacea, post-emergence, 312 h, read-out: Control of weed species after post-emergence application, IPOHE (100=total damage to plant; 0=no damage to plant)
# How it was run: as §1
# Eleusine indica (ELEIN) = conditions: Application Rate 500 g/Ha, evaluated after 13 days; for pest or weed control at 500 g/ha: Eleusine indica, post-emergence, 312 h, read-out: Control of weed species after post-emergence application, ELEIN (100=total damage to plant; 0=no damage to plant)
# How it was run: as §1
# [5] = tested on: Chenopodium album (CHEAL); conditions: Application Rate 500 g/Ha, evaluated after 13 days; for pest or weed control at 500 g/ha: Chenopodium album, post-emergence, 312 h, read-out: Control of weed species after post-emergence application, CHEAL (100=total damage to plant; 0=no damage to plant)
# How it was run: as §1
# [6] = tested on: Echinochloa crus-galli (ECHCG); conditions: Application Rate 500 g/Ha, evaluated after 13 days; for pest or weed control at 500 g/ha: Echinochloa crus-galli, post-emergence, 312 h, read-out: Control of weed species after post-emergence application, ECHCG (100=total damage to plant; 0=no damage to plant)
# How it was run: as §1
compound,measurement,setting,value
C=C/N=C(\OC)c1cc[n+](C(C)C(=O)OC)nc1 (stereo not drawn) [Compound A93],pest or weed control at 500 g/ha,Setaia fabei (SETFA),40%
same,pest or weed control at 500 g/ha,[1],0%
same,pest or weed control at 500 g/ha,Lolium perenne (LOLPE),10%
same,pest or weed control at 500 g/ha,[2],50%
same,pest or weed control at 500 g/ha,[3],10%
same,pest or weed control at 500 g/ha,[4],20%
same,pest or weed control at 500 g/ha,Eleusine indica (ELEIN),30%
same,pest or weed control at 500 g/ha,[5],0%
same,pest or weed control at 500 g/ha,[6],30%
COP(=O)(C[n+]1ccc(-c2ncco2)cn1)OC [Compound A94],"Control of weed species after post-emergence application, SETFA (100=total damage to plant; 0=no damage to plant)",Setaia fabei (SETFA),90
same,"Control of weed species after post-emergence application, AMAPA (100=total damage to plant; 0=no damage to plant)",[1],90
same,"Control of weed species after post-emergence application, LOLPE (100=total damage to plant; 0=no damage to plant)",Lolium perenne (LOLPE),40
same,"Control of weed species after post-emergence application, DIGSA (100=total damage to plant; 0=no damage to plant)",[2],100
same,"Control of weed species after post-emergence application, EPHHL (100=total damage to plant; 0=no damage to plant)",[3],100
same,"Control of weed species after post-emergence application, IPOHE (100=total damage to plant; 0=no damage to plant)",[4],90
same,"Control of weed species after post-emergence application, ELEIN (100=total damage to plant; 0=no damage to plant)",Eleusine indica (ELEIN),100
same,"Control of weed species after post-emergence application, CHEAL (100=total damage to plant; 0=no damage to plant)",[5],90
same,"Control of weed species after post-emergence application, ECHCG (100=total damage to plant; 0=no damage to plant)",[6],90
COC(=O)c1ccccc1C[n+]1ccc(-c2ncco2)cn1 [Compound A95],pest or weed control at 500 g/ha,Setaia fabei (SETFA),20%
same,pest or weed control at 500 g/ha,[1],10%
same,pest or weed control at 500 g/ha,Lolium perenne (LOLPE),0%
same,pest or weed control at 500 g/ha,[2],30%
same,pest or weed control at 500 g/ha,[3],30%
same,pest or weed control at 500 g/ha,[4],10%
same,pest or weed control at 500 g/ha,Eleusine indica (ELEIN),10%
same,pest or weed control at 500 g/ha,[5],0%
same,pest or weed control at 500 g/ha,[6],10%
O=C(O)CC[n+]1ccc(-c2ccno2)cn1 [Compound A96],pest or weed control at 500 g/ha,Setaia fabei (SETFA),80%
same,pest or weed control at 500 g/ha,[1],100%
same,pest or weed control at 500 g/ha,Lolium perenne (LOLPE),70%
same,pest or weed control at 500 g/ha,[2],40%
same,pest or weed control at 500 g/ha,[3],100%
same,pest or weed control at 500 g/ha,[4],80%
same,pest or weed control at 500 g/ha,Eleusine indica (ELEIN),80%
same,pest or weed control at 500 g/ha,[5],90%
same,pest or weed control at 500 g/ha,[6],30%
O=C(O)CC[n+]1ccc(-c2ccsn2)cn1 [Compound A97],pest or weed control at 500 g/ha,Setaia fabei (SETFA),40%
same,pest or weed control at 500 g/ha,[1],100%
same,pest or weed control at 500 g/ha,Lolium perenne (LOLPE),30%
same,pest or weed control at 500 g/ha,[2],50%
same,pest or weed control at 500 g/ha,[3],50%
same,pest or weed control at 500 g/ha,[4],20%
same,pest or weed control at 500 g/ha,Eleusine indica (ELEIN),70%
same,pest or weed control at 500 g/ha,[5],80%
same,pest or weed control at 500 g/ha,[6],60%
Cc1nnc(-c2cc[n+](CCC(=O)O)nc2)s1 [Compound A98],pest or weed control at 500 g/ha,Setaia fabei (SETFA),100%
same,pest or weed control at 500 g/ha,[1],100%
same,pest or weed control at 500 g/ha,Lolium perenne (LOLPE),80%
same,pest or weed control at 500 g/ha,[2],90%
same,pest or weed control at 500 g/ha,[3],90%
same,pest or weed control at 500 g/ha,[4],40%
same,pest or weed control at 500 g/ha,Eleusine indica (ELEIN),80%
same,pest or weed control at 500 g/ha,[5],90%
same,pest or weed control at 500 g/ha,[6],70%
O=C(O)CC[n+]1ccc(-c2cscn2)cn1 [Compound A100],pest or weed control at 500 g/ha,Setaia fabei (SETFA),30%
same,pest or weed control at 500 g/ha,[1],0%
same,pest or weed control at 500 g/ha,Lolium perenne (LOLPE),10%
same,pest or weed control at 500 g/ha,[2],40%
same,pest or weed control at 500 g/ha,[3],30%
same,pest or weed control at 500 g/ha,[4],20%
same,pest or weed control at 500 g/ha,Eleusine indica (ELEIN),30%
same,pest or weed control at 500 g/ha,[5],0%
same,pest or weed control at 500 g/ha,[6],30%
O=S(=O)([O-])N1CCCC1C[n+]1ccc(-c2ncco2)cn1 (stereo not drawn) [Compound A101],pest or weed control at 500 g/ha,Setaia fabei (SETFA),60%
same,pest or weed control at 500 g/ha,[1],70%
same,pest or weed control at 500 g/ha,Lolium perenne (LOLPE),20%
same,pest or weed control at 500 g/ha,[2],70%
same,pest or weed control at 500 g/ha,[3],70%
same,pest or weed control at 500 g/ha,[4],40%
same,pest or weed control at 500 g/ha,Eleusine indica (ELEIN),30%
same,pest or weed control at 500 g/ha,[5],60%
same,pest or weed control at 500 g/ha,[6],40%
O=P(O)(O)C[n+]1ccc(-c2ncco2)cn1 [Compound A102],"Control of weed species after post-emergence application, SETFA (100=total damage to plant; 0=no damage to plant)",Setaia fabei (SETFA),60
same,"Control of weed species after post-emergence application, AMAPA (100=total damage to plant; 0=no damage to plant)",[1],100
same,"Control of weed species after post-emergence application, LOLPE (100=total damage to plant; 0=no damage to plant)",Lolium perenne (LOLPE),10
same,"Control of weed species after post-emergence application, DIGSA (100=total damage to plant; 0=no damage to plant)",[2],60
same,"Control of weed species after post-emergence application, EPHHL (100=total damage to plant; 0=no damage to plant)",[3],90
same,"Control of weed species after post-emergence application, IPOHE (100=total damage to plant; 0=no damage to plant)",[4],60
same,"Control of weed species after post-emergence application, ELEIN (100=total damage to plant; 0=no damage to plant)",Eleusine indica (ELEIN),30
same,"Control of weed species after post-emergence application, CHEAL (100=total damage to plant; 0=no damage to plant)",[5],90
same,"Control of weed species after post-emergence application, ECHCG (100=total damage to plant; 0=no damage to plant)",[6],70
